From patent US10722503B2, “Glitazones for topical application” (priority 2017, dated 2020)

What was measured:
[1] = test system: keratosis pilaris (KP); assay: Topical treatment of keratosis pilaris (KP) in patients, severity grading; assay type: in vivo, human; conditions: formulation similar to that of Example 1, glitazone substituted for pioglitazone
From the text: Prior to treatment, the severity of the KP condition was graded. […]

[2] = test system: SEB-1 sebocytes; assay: In vitro treatment of cultured sebocytes, intracellular lipids (ADIPORED fluorescence normalized to DAPI cell count); assay type: cell-based; conditions: formulation similar to that of Example 1, glitazone substituted for pioglitazone
Experimental: Cultured SEB-1 sebocytes (Xia et al., Dermato-Endocrinology, 1(2):92-95 (2009)) were treated with the pioglitazone formulation of Example 1. Sebocytes were cultured in 96 wells plates (2500 cells/well), until confluency. Plates were washed twice with warm sterile PBS and then incubated (at 37° C. and 5% CO2) for another 48 hours after treating them with the pioglitazone formulation in treatment media. After 48 hours, media was carefully removed from the plates and, after washing with PBS, ADIPORED™ reagent (Lonza Walkersville, Inc., Walkersville, Md.) was carefully added into each well. The plates were read for intracellular lipids using a spectrofluorometer. The lipid fluorescence was normalized against the total cell count that was performed using DAPI staining. Following treatment, the lipid content in the treated sebocytes was determined to have increased by 27% compared to control untreated sebocytes. The increased lipid content was confirmed by determining the expression of SREBP-1, a lipid synthesis transcription factor.

Row | Compound | results of Examples 2 and 3 (KP treatment) repeated with another glitazone formulation [1] | results of Example 4 (sebocyte lipid content) repeated with another glitazone formulation [2]
1 | O=C1NC(=O)C(Cc2ccc3cc(OCc4ccccc4F)ccc3c2)S1 (stereo not drawn) [netoglitazone] | Results similar to those obtained in Examples 2 to 4 using pioglitazone | Results similar to those obtained in Examples 2 to 4 using pioglitazone
2 | COc1ccc(Oc2cc(N(C)CCOc3ccc(CC4SC(=O)NC4=O)cc3)ncn2)cc1 (stereo not drawn) [lobeglitazone] | Results similar to those obtained in Examples 2 to 4 using pioglitazone | Results similar to those obtained in Examples 2 to 4 using pioglitazone
3 | COc1ccc2nc(COc3ccc(CC4SC(=O)NC4=O)cc3)n(C)c2c1 (stereo not drawn) [rivoglitazone] | Results similar to those obtained in Examples 2 to 4 using pioglitazone | Results similar to those obtained in Examples 2 to 4 using pioglitazone
